Activity calls are given as the source filed them. The rule behind the calls is not given here.
What was measured:
[1] = test system: Stenotrophomonas maltophilia; test: Inhibition of biofilm formation in Stenotrophomonas maltophilia K279a at 50 uM incubated for 24 hrs by crystal violet staining based analysis; type: functional, organism-based
Pseudomonas aeruginosa [2] = test: Antibacterial activity against Pseudomonas aeruginosa PAR7244 assessed as bacterial growth inhibition at 50 uM incubated for 20 hrs by broth microdilution method; type: functional, organism-based
Staphylococcus aureus = test: Inhibition of biofilm formation in Staphylococcus aureus Newman ATCC 25904 at 50 uM incubated for 24 hrs by crystal violet staining based assay relative to control; type: functional
Pseudomonas aeruginosa [3] = test: Antibacterial activity against eYFP labeled Pseudomonas aeruginosa PAO1 assessed as inhibition of bacterial growth at 50 uM incubated for 20 hrs by broth microdilution method relative to control; type: functional; parameters: scale not given: the % may be the effect or the level left
[4] = test system: Stenotrophomonas maltophilia; test: Antibacterial activity against Stenotrophomonas maltophilia K279a assessed as bacterial growth inhibition at 50 uM incubated for 20 hrs by broth microdilution method; type: functional, organism-based
[5] = Toxicity in Galleria mellonella larvae assessed as signs of melanization at 100 uM
[6] = Toxicity in Galleria mellonella larvae assessed as reduction in animal survival at 100 uM
HK-2 = test: Cytotoxicity against human HK-2 cells assessed as reduction in cell survival at 50 uM incubated for 24 to 48 hrs by MTT assay; type: toxicity, cell-based; settings: hk-2, 50 µM, time 24-48 hrs
Candida albicans [7] = test: Antibiofilm activity against Candida albicans M2396/Pseudomonas aeruginosa PA01 dual-species at 50 uM incubated for 24 hrs by confocal laser-scanning microscopy; type: functional, organism-based
Candida albicans [8] = test: Antifungal activity against RFP-expressing Candida albicans M2396 assessed as fungal growth inhibition at 50 uM incubated for 20 hrs by microplate reader analysis; type: functional, organism-based
Candida albicans [9] = test: Inhibition of biofilm formation in Candida albicans M2396 at 50 uM incubated for 24 hrs by crystal violet staining based analysis; type: functional, organism-based
Candida albicans [10] = test: Antibiofilm activity against Candida albicans M2396 at 50 uM incubated for 24 hrs by confocal laser-scanning microscopy; type: functional, organism-based
Pseudomonas aeruginosa [11] = test: Inhibition of biofilm formation in eYFP labeled Pseudomonas aeruginosa PAO1 at 50 uM incubated for 24 hrs by crystal violet staining based analysis relative to control; type: functional
Escherichia coli [12] = test: Antibiofilm activity against Escherichia coli ATCC 9637 assessed as reduction in biofilm formation at 50 uM incubated for 24 hrs by crystal violet staining based assay; type: functional, organism-based
Candida albicans [13] = test: Inhibition of biofilm formation in developmental phase of Candida albicans M2396 at 50 uM incubated for 24 hrs by crystal violet staining based analysis; type: functional, organism-based
Pseudomonas aeruginosa [14] = test: Antibiofilm activity against Pseudomonas aeruginosa PAR7244 assessed as reduction in biofilm formation at 50 uM incubated for 24 hrs by crystal violet staining based analysis; type: functional, organism-based
Salmonella typhimurium [15] = test: Antibacterial activity against Salmonella enterica subsp. enterica serovar Typhimurium assessed as bacterial growth inhibition at 50 uM incubated for 20 hrs by broth microdilution method; type: functional, organism-based
Salmonella typhimurium [16] = test: Antibiofilm activity against Salmonella enterica subsp. enterica serovar Typhimurium assessed as reduction in biofilm formation at 50 uM incubated for 24 hrs by crystal violet staining based assay relative to control; type: functional; parameters: scale not given: the % may be the effect or the level left
Candida albicans [17] = test: Inhibition of biofilm formation in RFP-expressing Candida albicans M2396 at 50 uM incubated for 24 hrs by crystal violet staining based analysis relative to control; type: functional
Candida albicans [18] = test: Inhibition of biofilm formation in developmental phase of Candida albicans M2396 at 50 uM incubated for 24 hrs by crystal violet staining based analysis relative to control; type: functional
Pseudomonas aeruginosa [19] = test: Antibacterial activity against Pseudomonas aeruginosa PAR7244 infected in Galleria mellonella larvae assessed as increase in survival rate at 50 uM measured every 24 hrs (reference value: 48 %); type: functional
Escherichia coli [20] = test: Antibacterial activity against Escherichia coli ATCC 9637 assessed as bacterial growth inhibition at 50 uM incubated for 20 hrs by broth microdilution method relative to control; type: functional; parameters: scale not given: the % may be the effect or the level left
Escherichia coli [21] = test: Antibiofilm activity against Escherichia coli ATCC 9637 assessed as reduction in biofilm formation at 50 uM incubated for 24 hrs by crystal violet staining based assay relative to control; type: functional; parameters: scale not given: the % may be the effect or the level left
Pseudomonas aeruginosa [22] = test: Antibiofilm activity against Pseudomonas aeruginosa PAR7244 assessed as reduction in biofilm formation at 50 uM incubated for 24 hrs by crystal violet staining based analysis relative to control; type: functional; parameters: scale not given: the % may be the effect or the level left
Pseudomonas aeruginosa [23] = test: Antibiofilm activity against Pseudomonas aeruginosa PAO1 at 50 uM incubated for 24 hrs by confocal laser-scanning microscopy; type: functional, organism-based

O=C1C=CC(=C(c2ccc(O)cc2)c2ccc(O)cc2)O1
inhibition [1]: inactive
Activity (Pseudomonas aeruginosa [2]): inactive
inhibition at 50 µM (Staphylococcus aureus): 52%
Activity (Pseudomonas aeruginosa [3]): <=5%
Activity [4]: inactive

O=C1C=CC(=C(c2cccs2)c2cccs2)O1
inhibition [1]: inactive
Activity (Pseudomonas aeruginosa [2]): inactive
Activity (Pseudomonas aeruginosa [3]): <=5%
Activity [4]: inactive

O=C1C=C/C(=C/Br)O1
inhibition [1]: inactive
Activity [5]: Non-Toxic
Activity [6]: Non-Toxic
Activity (Pseudomonas aeruginosa [2]): inactive
Activity (HK-2): Toxic
Activity (Candida albicans [7]): Active
Activity (Candida albicans [8]): Active
inhibition (Candida albicans [9]): Active
Activity (Candida albicans [10]): Active
inhibition at 50 µM (Pseudomonas aeruginosa [11]): 75%
Activity (Pseudomonas aeruginosa [3]): <=5%
Activity (Escherichia coli [12]): inactive
inhibition (Candida albicans [13]): inactive
Activity (Pseudomonas aeruginosa [14]): inactive
Activity [4]: inactive

COc1ccc(/C(Cl)=C2\C=CC(=O)O2)cc1
inhibition [1]: inactive
Activity (Pseudomonas aeruginosa [2]): inactive
Activity (Pseudomonas aeruginosa [3]): <=5%
Activity [4]: inactive

O=C1C=CC(=C(Br)Br)O1
inhibition [1]: inactive
Activity (Pseudomonas aeruginosa [2]): inactive
Activity (Salmonella typhimurium [15]): Active
Activity (Candida albicans [7]): Active
Activity (Salmonella typhimurium [16]): 67%
Activity (Candida albicans [8]): Active
inhibition (Candida albicans [9]): Active
Activity (Candida albicans [10]): Active
Activity (Pseudomonas aeruginosa [3]): <=5%
Activity (Escherichia coli [12]): inactive
inhibition (Candida albicans [13]): Active
Activity [4]: inactive

O=C1C=C/C(=C(/Br)c2ccc(C(F)(F)F)cc2)O1
inhibition [1]: inactive
inhibition at 50 µM (Candida albicans [17]): 75%
Activity (Pseudomonas aeruginosa [2]): inactive
inhibition at 50 µM (Candida albicans [18]): 85%
Activity (Pseudomonas aeruginosa [3]): <=5%
Activity [4]: inactive

O=C1C=CC(=C(c2ccc([N+](=O)[O-])cc2)c2ccc([N+](=O)[O-])cc2)O1
inhibition [1]: inactive
Activity (Pseudomonas aeruginosa [2]): inactive
Activity (Pseudomonas aeruginosa [3]): <=5%
Activity [4]: inactive

COc1ccccc1/C(Br)=C1\C=CC(=O)O1
inhibition [1]: inactive
Activity (Pseudomonas aeruginosa [2]): inactive
Activity (Pseudomonas aeruginosa [3]): <=5%
Activity [4]: inactive

O=C1C=C/C(=C(/Br)c2ccc(F)cc2)O1
inhibition [1]: inactive
Activity (Pseudomonas aeruginosa [2]): inactive
Activity (Pseudomonas aeruginosa [3]): <=5%
Activity [4]: inactive

O=C1C=C/C(=C(/Br)c2ccccc2)O1
inhibition [1]: inactive
Activity (Pseudomonas aeruginosa [2]): inactive
Activity (Pseudomonas aeruginosa [3]): <=5%
Activity [4]: inactive

O=C1OC(=C(c2ccccc2)c2ccccc2)C=C1Br
inhibition [1]: inactive
Activity (Pseudomonas aeruginosa [2]): inactive
Activity (Pseudomonas aeruginosa [3]): <=5%
Activity [4]: inactive

COc1ccc(C(=C2C=CC(=O)O2)c2ccc(OC)cc2)cc1
inhibition [1]: inactive
inhibition at 50 µM (Candida albicans [17]): 61%
Activity (Pseudomonas aeruginosa [2]): inactive
inhibition at 50 µM (Candida albicans [18]): 75%
inhibition at 50 µM (Staphylococcus aureus): 44%
Activity (Pseudomonas aeruginosa [3]): <=5%
Activity [4]: inactive

O=C1C=C/C(=C(/Br)c2ccc([N+](=O)[O-])cc2)O1
inhibition [1]: inactive
Activity (Pseudomonas aeruginosa [2]): inactive
Activity (Pseudomonas aeruginosa [3]): <=5%
Activity [4]: inactive

O=C1C=C(CBr)C(=C(Br)Br)O1
inhibition [1]: inactive
Activity [5]: Non-Toxic
inhibition at 50 µM (Candida albicans [17]): 51%
Activity [6]: Non-Toxic
Activity (Pseudomonas aeruginosa [2]): inactive
Activity (Salmonella typhimurium [15]): Active
Activity (HK-2): Toxic
Activity (Salmonella typhimurium [16]): 72%
inhibition at 50 µM (Staphylococcus aureus): 71%
Activity (Candida albicans [10]): Active
inhibition at 50 µM (Pseudomonas aeruginosa [11]): 60%
Activity (Pseudomonas aeruginosa [3]): <=5%
Activity [4]: inactive

O=C1C=CC(=C(c2ccccc2)c2ccccc2)O1
inhibition [1]: inactive
Activity (Pseudomonas aeruginosa [2]): inactive
Activity (Pseudomonas aeruginosa [3]): <=5%
Activity [4]: inactive

COc1ccccc1C(=C1C=CC(=O)O1)c1ccccc1OC
inhibition [1]: inactive
Activity (Pseudomonas aeruginosa [2]): inactive
inhibition at 50 µM (Staphylococcus aureus): 7%
inhibition at 50 µM (Pseudomonas aeruginosa [11]): 41%
Activity (Pseudomonas aeruginosa [3]): <=5%
Activity [4]: inactive

O=C1C=CC(=C(c2ccc(F)cc2)c2ccc(F)cc2)O1
inhibition [1]: inactive
Activity (Pseudomonas aeruginosa [2]): inactive
Activity (Pseudomonas aeruginosa [3]): <=5%
Activity [4]: inactive

O=C1C=C/C(=C(/Br)c2cccc([N+](=O)[O-])c2)O1
inhibition [1]: inactive
Activity (Pseudomonas aeruginosa [2]): inactive
Activity (Pseudomonas aeruginosa [3]): <=5%
Activity [4]: inactive

COc1cccc(C(=C2C=CC(=O)O2)c2cccc(OC)c2)c1
inhibition [1]: inactive
Activity [5]: Non-Toxic
inhibition at 50 µM (Candida albicans [17]): 53%
Activity [6]: Non-Toxic
Activity (Pseudomonas aeruginosa [2]): inactive
Activity (HK-2): Non-Toxic
inhibition at 50 µM (Candida albicans [18]): 71%
inhibition at 50 µM (Staphylococcus aureus): 30%
inhibition at 50 µM (Pseudomonas aeruginosa [11]): 44%
Activity (Pseudomonas aeruginosa [3]): <=5%
survival at 50 µM (Pseudomonas aeruginosa [19]): 72%
Activity [4]: inactive

COc1cccc(/C(Br)=C2\C=CC(=O)O2)c1
inhibition [1]: inactive
Activity (Pseudomonas aeruginosa [2]): inactive
Activity (Pseudomonas aeruginosa [3]): <=5%
Activity [4]: inactive

COc1ccc(C#CC(C#Cc2ccc(OC)cc2)=C2C=CC(=O)O2)cc1
inhibition [1]: inactive
Activity (Pseudomonas aeruginosa [2]): inactive
inhibition at 50 µM (Staphylococcus aureus): 36%
Activity (Escherichia coli [20]): 8%
Activity (Pseudomonas aeruginosa [3]): <=5%
Activity (Escherichia coli [21]): 31%
Activity [4]: inactive

O=C1C=CC(=C(c2cccc([N+](=O)[O-])c2)c2cccc([N+](=O)[O-])c2)O1
inhibition [1]: inactive
Activity (Pseudomonas aeruginosa [2]): inactive
Activity (Pseudomonas aeruginosa [3]): <=5%
Activity [4]: inactive

O=C1C=CC(=C(Cl)Cl)O1
inhibition [1]: inactive
Activity [5]: Non-Toxic
inhibition at 50 µM (Candida albicans [17]): 21%
Activity [6]: Non-Toxic
Activity (Pseudomonas aeruginosa [2]): inactive
inhibition at 50 µM (Pseudomonas aeruginosa [11]): 52%
Activity (Pseudomonas aeruginosa [3]): <=5%
Activity [4]: inactive

CC1=CC(=O)OC1=C(Br)Br
inhibition [1]: inactive
Activity [5]: Non-Toxic
inhibition at 50 µM (Candida albicans [17]): 38%
Activity [6]: Non-Toxic
Activity (Pseudomonas aeruginosa [2]): inactive
Activity (HK-2): Toxic
Activity (Pseudomonas aeruginosa [22]): 44%
inhibition at 50 µM (Pseudomonas aeruginosa [11]): 70%
Activity (Pseudomonas aeruginosa [3]): 11%
Activity [4]: inactive

COc1ccc(C(=C2C=C(Br)C(=O)O2)c2ccc(OC)c(Br)c2)cc1Br
inhibition [1]: inactive
Activity (Pseudomonas aeruginosa [2]): inactive
Activity (Pseudomonas aeruginosa [3]): <=5%
Activity (Escherichia coli [21]): 15%
Activity [4]: inactive

O=C1C=C/C(=C(\Cl)I)O1
inhibition [1]: inactive
inhibition at 50 µM (Candida albicans [17]): 92%
Activity (Pseudomonas aeruginosa [2]): inactive
Activity (Salmonella typhimurium [15]): Active
inhibition at 50 µM (Candida albicans [18]): 52%
Activity (Candida albicans [7]): Active
Activity (Salmonella typhimurium [16]): 59%
Activity (Candida albicans [10]): Active
Activity (Escherichia coli [20]): 28%
inhibition at 50 µM (Pseudomonas aeruginosa [11]): 51%
Activity (Pseudomonas aeruginosa [3]): <=5%
Activity (Pseudomonas aeruginosa [23]): Active
Activity [4]: inactive

COc1ccc(/C(Br)=C2\C=CC(=O)O2)cc1
inhibition [1]: inactive
Activity (Pseudomonas aeruginosa [2]): inactive
Activity (Pseudomonas aeruginosa [3]): <=5%
Activity [4]: inactive

O=C1OC(=C(c2ccc(C(F)(F)F)cc2)c2ccc(C(F)(F)F)cc2)C=C1Br
inhibition [1]: inactive
Activity (Pseudomonas aeruginosa [2]): inactive
Activity (Pseudomonas aeruginosa [3]): <=5%
Activity [4]: inactive

O=C1C=CC(=C(c2ccc(C(F)(F)F)cc2)c2ccc(C(F)(F)F)cc2)O1
inhibition [1]: inactive
Activity (Pseudomonas aeruginosa [2]): inactive
Activity (Pseudomonas aeruginosa [3]): <=5%
Activity [4]: inactive

O=C1C=C(CBr)C(=O)O1
inhibition [1]: inactive
Activity (Pseudomonas aeruginosa [2]): inactive
Activity (Pseudomonas aeruginosa [3]): <=5%
Activity [4]: inactive

O=C1C=C/C(=C(/Cl)c2ccccc2)O1
inhibition [1]: inactive
Activity (Pseudomonas aeruginosa [2]): inactive
Activity (Pseudomonas aeruginosa [3]): <=5%
Activity [4]: inactive

COc1ccc(C(=C2C=C(Br)C(=O)O2)c2ccc(OC)cc2)cc1
inhibition [1]: inactive
Activity (Pseudomonas aeruginosa [2]): inactive
Activity (Pseudomonas aeruginosa [3]): <=5%
Activity [4]: inactive
